The series deals with human appendix. Description: Clinical data on delivery and concentration of diatrizoate iodine in the appendix. Format: in vivo. Particulars: following oral administration. As to the method:
The bioavailability and release profile of diatrizoate appear dependent on both concentration and pH, which explains why
Critical to efficacy of the composition are ‘gasless’ enteric conditions and neutralization of the harsh acidity of gastric secretions that appear to inhibit the transit of intact diatrizoate to the appendix. Clinical trials show optimal appendiceal visualization at a critical concentration of 2.8 mg % iodine; however 5 mg % is considered optimal for ideal image contrast.

Consider `CC(=O)Nc1c(I)c(NC(C)=O)c(I)c(C(=O)O)c1I` [diatrizoate, 1-deoxy-1-(methylamino)-D-glucitol-3,5-diacetamido-2,4,6-triiodobenzoate], for which the “time until organically bound iodine is delivered and concentrated in the human appendix” value is listed as “approximately 50 minutes”.

For the origin of these results see patent US7378081B2, “Composition and method for direct visualization of the human appendix” (Vincon Research Enterprises, LLC, priority 2003, dated 2008).
